Test results as given in ChEMBL document CHEMBL2016493, “Design, synthesis, synergistic antimicrobial activity and cytotoxicity of 4-aryl substituted 3,4-dihydropyrimidinones of curcumin” (Bioorg Med Chem Lett, 2012).
The source made the active and inactive calls. No cut-off for these calls is given here.

Key:
Curvularia lunata [1] = test: Antifungal activity against Curvularia lunata MTCC 581 at 40 uM/ml after 48 hrs by paper disc diffusion method; format: functional; conditions: MTCC 581, 48 h, read-out: IZ
Salmonella typhimurium [2] = test: Antibacterial activity against Salmonella typhimurium ATCC 23564 at 80 uM/ml after 24 hrs by kirby-bauer method; format: functional, Salmonella enterica subsp. enterica serovar Typhimurium
Salmonella typhimurium [3] = test: Antibacterial activity against Salmonella typhimurium ATCC 23564 at 20 uM/ml after 24 hrs by kirby-bauer method; format: functional, Salmonella enterica subsp. enterica serovar Typhimurium
Aspergillus flavus [4] = test: Antifungal activity against Aspergillus flavus MTCC 1021 at 160 uM/ml after 48 hrs by paper disc diffusion method; format: functional; conditions: MTCC 1021, 48 h, read-out: IZ
Aspergillus niger [5] = test: Antifungal activity against Aspergillus niger MTCC 1108 at 40 uM/ml after 48 hrs by paper disc diffusion method; format: functional
Staphylococcus aureus [6] = test: Antibacterial activity against Staphylococcus aureus ATCC 11632 at 160 uM/ml after 24 hrs by kirby-bauer method; format: functional; conditions: ATCC 11632, 24 h, read-out: IZ
[7] = tested on: Burkholderia pseudomallei; test: Antibacterial activity against Burkholderia pseudomallei NTCC 10274 at 80 uM/ml after 24 hrs by kirby-bauer method; format: functional; conditions: NTCC 10274, 24 h, read-out: IZ
QG-56 = test: Cytotoxicity against human QG56 cells after 48 hrs by MTT assay; format: functional, cell-based
Aspergillus niger [8] = test: Antifungal activity against Aspergillus niger MTCC 1108 at 80 uM/ml after 48 hrs by paper disc diffusion method; format: functional; conditions: MTCC 1108, 48 h, read-out: IZ
Escherichia coli [9] = test: Antibacterial activity against Escherichia coli ATCC 35218 at 160 uM/ml after 24 hrs by kirby-bauer method; format: functional
Staphylococcus aureus [10] = test: Antibacterial activity against Staphylococcus aureus ATCC 11632 at 20 uM/ml after 24 hrs by kirby-bauer method; format: functional
Curvularia lunata [11] = test: Antifungal activity against Curvularia lunata MTCC 581 at 160 uM/ml after 48 hrs by paper disc diffusion method; format: functional; conditions: MTCC 581, 48 h, read-out: IZ
Trichoderma viride [12] = test: Antifungal activity against Trichoderma viride MTCC 1107 at 160 uM/ml after 48 hrs by paper disc diffusion method; format: functional; conditions: MTCC 1107, 48 h, read-out: IZ
Escherichia coli [13] = test: Antibacterial activity against Escherichia coli ATCC 35218 at 40 uM/ml after 24 hrs by kirby-bauer method; format: functional; conditions: ATCC 35218, 24 h, read-out: IZ
Trichoderma viride [14] = test: Antifungal activity against Trichoderma viride MTCC 1107 at 80 uM/ml after 48 hrs by paper disc diffusion method; format: functional; conditions: MTCC 1107, 48 h, read-out: IZ
Salmonella typhimurium [15] = test: Antibacterial activity against Salmonella typhimurium ATCC 23564 at 40 uM/ml after 24 hrs by kirby-bauer method; format: functional, Salmonella enterica subsp. enterica serovar Typhimurium
Curvularia lunata [16] = test: Antifungal activity against Curvularia lunata MTCC 581 at 20 uM/ml after 48 hrs by paper disc diffusion method; format: functional; conditions: MTCC 581, 48 h, read-out: IZ
Curvularia lunata [17] = test: Antifungal activity against Curvularia lunata MTCC 581 at 80 uM/ml after 48 hrs by paper disc diffusion method; format: functional; conditions: MTCC 581, 48 h, read-out: IZ
Salmonella typhimurium [18] = test: Antibacterial activity against Salmonella typhimurium ATCC 23564 at 160 uM/ml after 24 hrs by kirby-bauer method; format: functional, Salmonella enterica subsp. enterica serovar Typhimurium; conditions: Salmonella enterica, ATCC 23564, 24 h; read-out: IZ
Staphylococcus aureus [19] = test: Antibacterial activity against Staphylococcus aureus ATCC 11632 at 80 uM/ml after 24 hrs by kirby-bauer method; format: functional; conditions: ATCC 11632, 24 h, read-out: IZ
Trichoderma viride [20] = test: Antifungal activity against Trichoderma viride MTCC 1107 at 40 uM/ml after 48 hrs by paper disc diffusion method; format: functional; conditions: MTCC 1107, 48 h, read-out: IZ
Aspergillus flavus [21] = test: Antifungal activity against Aspergillus flavus MTCC 1021 at 40 uM/ml after 48 hrs by paper disc diffusion method; format: functional
Trichoderma viride [22] = test: Antifungal activity against Trichoderma viride MTCC 1107 at 20 uM/ml after 48 hrs by paper disc diffusion method; format: functional; conditions: MTCC 1107, 48 h, read-out: IZ
Staphylococcus aureus [23] = test: Antibacterial activity against Staphylococcus aureus ATCC 11632 at 40 uM/ml after 24 hrs by kirby-bauer method; format: functional
[24] = tested on: Burkholderia pseudomallei; test: Antibacterial activity against Burkholderia pseudomallei NTCC 10274 at 160 uM/ml after 24 hrs by kirby-bauer method; format: functional; conditions: NTCC 10274, 24 h, read-out: IZ
Escherichia coli [25] = test: Antibacterial activity against Escherichia coli ATCC 35218 at 80 uM/ml after 24 hrs by kirby-bauer method; format: functional; conditions: ATCC 35218, 24 h, read-out: IZ
Aspergillus flavus [26] = test: Antifungal activity against Aspergillus flavus MTCC 1021 at 80 uM/ml after 48 hrs by paper disc diffusion method; format: functional
Aspergillus niger [27] = test: Antifungal activity against Aspergillus niger MTCC 1108 at 160 uM/ml after 48 hrs by paper disc diffusion method; format: functional; conditions: MTCC 1108, 48 h, read-out: IZ
Escherichia coli [28] = test: Antibacterial activity against Escherichia coli ATCC 35218 at 20 uM/ml after 24 hrs by kirby-bauer method; format: functional
Pseudomonas aeruginosa [29] = test: Antibacterial activity against Pseudomonas aeruginosa ATCC 15499 at 160 uM/ml after 24 hrs by kirby-bauer method; format: functional
[30] = tested on: Burkholderia pseudomallei; test: Antibacterial activity against Burkholderia pseudomallei NTCC 10274 at 20 uM/ml after 24 hrs by kirby-bauer method; format: functional
Aspergillus niger [31] = test: Antifungal activity against Aspergillus niger MTCC 1108 at 20 uM/ml after 48 hrs by paper disc diffusion method; format: functional
[32] = tested on: Burkholderia pseudomallei; test: Antibacterial activity against Burkholderia pseudomallei NTCC 10274 at 40 uM/ml after 24 hrs by kirby-bauer method; format: functional
Aspergillus flavus [33] = test: Antifungal activity against Aspergillus flavus MTCC 1021 at 20 uM/ml after 48 hrs by paper disc diffusion method; format: functional
Pseudomonas aeruginosa [34] = test: Antibacterial activity against Pseudomonas aeruginosa ATCC 15499 at 20 uM/ml after 24 hrs by kirby-bauer method; format: functional
Pseudomonas aeruginosa [35] = test: Antibacterial activity against Pseudomonas aeruginosa ATCC 15499 at 80 uM/ml after 24 hrs by kirby-bauer method; format: functional; conditions: ATCC 15499, 24 h, read-out: IZ
Pseudomonas aeruginosa [36] = test: Antibacterial activity against Pseudomonas aeruginosa ATCC 15499 at 40 uM/ml after 24 hrs by kirby-bauer method; format: functional
[37] = Salmonella enterica, ATCC 23564, 24 h, read-out: IZ
[38] = Salmonella enterica subsp. enterica serovar Typhimurium

| Structure (SMILES) | zone of inhibition at 40 µM (Curvularia lunata [1]) [mm] | zone of inhibition at 160 µM (Aspergillus flavus [4]) [mm] | zone of inhibition at 160 µM (Staphylococcus aureus [6]) [mm] | zone of inhibition at 80 µM [7] [mm] | IC50 (QG-56) [uM/ml] | zone of inhibition at 80 µM (Aspergillus niger [8]) [mm] | zone of inhibition at 160 µM (Curvularia lunata [11]) [mm] | zone of inhibition at 160 µM (Trichoderma viride [12]) [mm] | zone of inhibition at 80 µM (Trichoderma viride [14]) [mm] | zone of inhibition at 20 µM (Curvularia lunata [16]) [mm] | zone of inhibition at 80 µM (Curvularia lunata [17]) [mm] | zone of inhibition at 160 µM (Salmonella typhimurium [18]) [mm] | zone of inhibition at 80 µM (Staphylococcus aureus [19]) [mm] | zone of inhibition (Trichoderma viride [20]) [mm] | inhibition zone (IZ) (Aspergillus flavus [21]) | IC50 (HCT-116) [uM/ml] | zone of inhibition at 20 µM (Trichoderma viride [22]) [mm] | zone of inhibition at 160 µM [24] [mm] | IC50 (HepG2) [uM/ml] | inhibition zone (IZ) (Aspergillus flavus [26]) | also measured |
| --- | --- | --- | --- | --- | --- | --- | --- | --- | --- | --- | --- | --- | --- | --- | --- | --- | --- | --- | --- | --- | --- |
| COc1cc(/C=C/C(=O)C2=C(/C=C/c3ccc(O)c(OC)c3)NC(=S)NC2c2ccc(Cl)cc2)ccc1O (configuration not stated) | 12 | 9 | 16 | 12 | 100 | 9 | 15 | 24 | 22 | 9 | 13 | 22 | 13 | 19 | inactive | 50 | 18 | 16 | 100 | inactive | zone of inhibition at 80 µM (Salmonella typhimurium [2]; [37]): 19 mm; zone of inhibition at 20 µM (Salmonella typhimurium [3]; [37]): 13 mm; inhibition zone (IZ) (Aspergillus niger [5]): inactive; zone of inhibition at 160 µM (Escherichia coli [9]; ATCC 35218, 24 h, read-out: IZ): 19 mm; zone of inhibition at 20 µM (Staphylococcus aureus [10]; ATCC 11632, 24 h, read-out: IZ): 9 mm; zone of inhibition at 40 µM (Escherichia coli [13]): 9 mm; zone of inhibition at 40 µM (Salmonella typhimurium [15]; [37]): 17 mm; zone of inhibition at 40 µM (Staphylococcus aureus [23]; ATCC 11632, 24 h, read-out: IZ): 11 mm; zone of inhibition at 80 µM (Escherichia coli [25]): 15 mm; zone of inhibition at 160 µM (Aspergillus niger [27]): 11 mm; inhibition zone (IZ) (Escherichia coli [28]): inactive; inhibition zone (IZ) (Pseudomonas aeruginosa [29]): inactive; inhibition zone (IZ) [30]: inactive; inhibition zone (IZ) (Aspergillus niger [31]): inactive; zone of inhibition at 40 µM ([32]; NTCC 10274, 24 h, read-out: IZ): 9 mm; inhibition zone (IZ) (Aspergillus flavus [33]): inactive |
| COc1cc(/C=C/C(=O)C2=C(/C=C/c3ccc(O)c(OC)c3)NC(=S)NC2c2ccc([N+](=O)[O-])cc2)ccc1O (configuration not stated) | 17 | 11 | 12 | 9 | 50 | 11 | 21 | 22 | 21 | 14 | 19 | 10 | 10 | 18 | inactive | 100 | 17 | 11 | 50 | inactive | inhibition zone (IZ) (Salmonella typhimurium [2]; [38]): inactive; inhibition zone (IZ) (Salmonella typhimurium [3]; [38]): inactive; zone of inhibition at 40 µM (Aspergillus niger [5]; MTCC 1108, 48 h, read-out: IZ): 9 mm; inhibition zone (IZ) (Pseudomonas aeruginosa [34]): inactive; zone of inhibition at 80 µM (Pseudomonas aeruginosa [35]): 9 mm; inhibition zone (IZ) (Escherichia coli [9]): inactive; inhibition zone (IZ) (Staphylococcus aureus [10]): inactive; inhibition zone (IZ) (Pseudomonas aeruginosa [36]): inactive; inhibition zone (IZ) (Salmonella typhimurium [15]; [38]): inactive; inhibition zone (IZ) (Staphylococcus aureus [23]): inactive; zone of inhibition at 160 µM (Aspergillus niger [27]): 13 mm; zone of inhibition at 160 µM (Pseudomonas aeruginosa [29]; ATCC 15499, 24 h, read-out: IZ): 10 mm; inhibition zone (IZ) [30]: inactive; inhibition zone (IZ) (Aspergillus niger [31]): inactive; inhibition zone (IZ) [32]: inactive; inhibition zone (IZ) (Aspergillus flavus [33]): inactive |
